Here are results for 1 substance from US20060263881A1, “Methods of expanding and selecting disease associated T-Cells” (priority 1998, published 2006).

Data set [1] deals with gut T-cell cultures from patients with Crohn's disease. In kind it is cell-based, human.
For data set [2], the system named is long term cultured gut T-cell cultures C1x, C2x, C4.2. The data set is classed as cell-based, human.
For data set [3], the system named is in vivo activated gut T-lymphocytes (primary cultures C11.3, C12.1, C8.1, C8.3) from patients with Crohn's disease. The data set is classed as cell-based, human. Conditions: 24 h.
The test system of data set [4] is human T-cell lines. The data set can be described thus: Cytolysis after addition of Infliximab and incubation with fresh human serum (complement). In kind it is cell-based. Conditions: versus murine SP2/O myeloma cell results.
For data set [5], the system named is transmembrane TNFα on SP2/O myeloma cells. The settings on record: murine SP2/O myeloma cells with cleavage-resistant transmembrane TNFα; cited from earlier work.
Data set [6] concerns gut T-cell cultures from patients with Crohn's disease.

Values joined by “and” are separate entries in the source; they are usually repeats but may differ in a detail not shown here. Equal entries are not always repeated.

With “Infliximab: chimeric TNFα antibody with high avidity for transmembrane TNFα (obtained from Centocor)”, the “Proliferation rate (in words)” value in data set [1] is reported as “did not change”. Further, the “SEA induced cytokine production after addition of Infliximab (in words)” value in data set [2] is “reduced”. In data set [3], the “Reduction of IFNγ production by Infliximab” value was 68% and 43% and 49% and 56%; the “Reduction of TNFα production by Infliximab” value is given as 97%. The “Complement activation / cytolysis by binding of Infliximab (in words)” value in data set [4] is on record as “could not confirm”. Besides, the “Infliximab molecules bound per cell (Scatchard analyses)” value in data set [5] is “about 35000 molecules per cell”. Further, in data set [6], the “Amount of propidium iodide and Annexin-FITC positive cells compared with SEA alone (in words)” value is given as “did not increase”; the “Induction of apoptosis (in words)” value is on record as “did not induce any apoptosis”.
